Measurements reported in patent US8288555B2, “Alkene derivatives as sphingosine 1-phosphate (S1P) receptor modulators” (Allergan, Inc., priority 2010, dated 2012).

biological target: T1, human S1P4 receptor (Homo sapiens, UniProt O95977); test: GTP γ35S binding assay for S1P4 activity; type: biochemical; conditions: activity potency at the S1P4 receptor from GTP γ35S binding; membranes of cells stably expressing the S1P4 receptor; test compounds 0.08 to 5,000 nM
T1 construct: expressed in transfected cells; membranes used
T1 sequence (O95977 1-384): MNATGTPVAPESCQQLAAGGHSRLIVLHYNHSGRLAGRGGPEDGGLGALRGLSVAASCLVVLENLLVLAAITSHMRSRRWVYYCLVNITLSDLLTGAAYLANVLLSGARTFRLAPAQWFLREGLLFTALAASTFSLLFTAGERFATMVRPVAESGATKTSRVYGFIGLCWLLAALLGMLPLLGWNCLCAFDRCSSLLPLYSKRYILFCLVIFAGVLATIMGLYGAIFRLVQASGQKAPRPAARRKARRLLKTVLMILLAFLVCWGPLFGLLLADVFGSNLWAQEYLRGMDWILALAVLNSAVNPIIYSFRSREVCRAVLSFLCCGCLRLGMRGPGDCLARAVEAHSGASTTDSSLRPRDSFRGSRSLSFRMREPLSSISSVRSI
Method: Compounds were synthesized and tested for S1P4 activity using the GTP γ^35S binding assay. These compounds may be assessed for their ability to activate or block activation of the human S1P4 receptor in cells stably expressing the S1P4 receptor.
GTP γ^35S binding was measured in the medium containing (mM) HEPES 25, pH 7.4, MgCl2 10, NaCl 100, dithitothreitol 0.5, digitonin 0.003%, 0.2 nM GTP γ^35S, and 5 μg membrane protein in a volume of 150 μl. Test compounds were included in the concentration range from 0.08 to 5,000 nM unless indicated otherwise. Membranes were incubated with 100 μM 5′-adenylylimmidodiphosphate for 30 min, and subsequently with 10 μM GDP for 10 min on ice. Drug solutions and membrane were mixed, and then reactions were initiated by adding GTP γ^35S and continued for 30 min at 25° C. Reaction mixtures were filtered over Whatman GF/B filters under vacuum, and washed three times with 3 mL of ice-cold buffer (HEPES 25, pH7.4, MgCl2 10 and NaCl 100). Filters were dried and mixed with scintillant, and counted for ^35S activity using a β-counter. Agonist-induced GTP γ^35S binding was obtained by subtracting that in the absence of agonist. Binding data were analyzed using a non-linear regression method. In case of antagonist assay, the reaction mixture contained 10 nM S1P in the presence of test antagonist at concentrations ranging from 0.08 to 5000 nM.

First: CNc1ncccc1-c1noc(/C(=C/c2ccc(C)c(C)c2)c2ccccc2OC)n1 [Compound 16, 3-{5-[(E)-2-(3,4-Dimethylphenyl)-1-(2-methoxyphenyl)vinyl]-1,2,4-oxadiazol-3-yl}-N-methylpyridin-2-amine]
Second: CNc1ncccc1-c1noc(/C(=C/c2ccc(C)c(C)c2)c2cccc(OC)c2)n1 [Compound 15, 3-{5-[(E)-2-(3,4-Dimethylphenyl)-1-(3-methoxyphenyl)vinyl]-1,2,4-oxadiazol-3-yl}-N-methylpyridin-2-amine]
The EC50 of the first is 3.6-fold lower: 501 nM for the first, 1780 nM for the second. The first is the more potent here.

First: CNc1ncccc1-c1noc(/C(=C/c2ccc(C)c(C)c2)c2cccc(F)c2)n1 [Compound 5, 3-{5-[(E)-2-(3,4-Dimethylphenyl)-1-(3-fluorophenyl)vinyl]-1,2,4-oxadiazol-3-yl}-N-methylpyridin-2-amine]
Second: CNc1ncccc1-c1noc(/C(=C/c2ccc(C)c(C)c2)c2cccc(C)c2)n1 [Compound 6, 3-{5-[(E)-2-(3,4-Dimethylphenyl)-1-(3-methylphenyl)vinyl]-1,2,4-oxadiazol-3-yl}-N-methylpyridin-2-amine]
The EC50 of the first is 5.4-fold lower: 375 nM for the first, 2020 nM for the second.

`CNc1ncccc1-c1noc(/C(=C/c2ccc(C)c(C)c2)c2cc(F)cc(F)c2)n1` [Compound 14, 3-{5-[(E)-1-(3,5-Difluorophenyl)-2-(3,4-dimethylphenyl)vinyl]-1,2,4-oxadiazol-3-yl}-N-methylpyridin-2-amine] and `CNc1ncccc1-c1noc(/C(=C/c2ccc(C)c(C)c2)c2ccsc2)n1` [Compound 8, 3-{5-[(E)-2-(3,4-Dimethylphenyl)-1-(3-thienyl)vinyl]-1,2,4-oxadiazol-3-yl}-N-methylpyridin-2-amine] are within 1.5-fold of each other in EC50: 550 nM for the first, 665 nM for the second.

First: CNc1ncccc1-c1noc(/C(=C/c2ccc(C)cc2)c2cccs2)n1 [Compound 10, N-Methyl-3-{5-[(Z)-2-(4-methylphenyl)-1-(2-thienyl)vinyl]-1,2,4-oxadiazol-3-yl}pyridin-2-amine]
Second: CNc1ncccc1-c1noc(/C(=C/c2ccc(C)c(C)c2)c2cccs2)n1 [3-{5-[(Z)-2-(3,4-dimethylphenyl)-1-(2-thienyl)vinyl]-1,2,4-oxadiazol-3-yl}-N-methylpyridin-2-amine]
The EC50 of the first is 4.5-fold higher: 635 nM for the first, 140 nM for the second.

Compared with `CNc1ncccc1-c1noc(/C(=C/c2ccccc2C)c2cccc(Cl)c2)n1` [Compound 20, 3-{5-[(E)-1-(3-Chlorophenyl)-2-(2-methylphenyl)vinyl]-1,2,4-oxadiazol-3-yl}-N-methylpyridin-2-amine], `CNc1ncccc1-c1noc(/C(=C/c2ccc(C)c(C)c2)c2cccc(Cl)c2)n1` [Compound 7, 3-{5-[(E)-1-(3-Chlorophenyl)-2-(3,4-dimethylphenyl)vinyl]-1,2,4-oxadiazol-3-yl}-N-methylpyridin-2-amine] is 25-fold lower in EC50: 2000 nM for the first, 79.3 nM for the second.
